Data: ChEMBL document CHEMBL5252531, “2015 Philip S. Portoghese Medicinal Chemistry Lectureship. Curing Hepatitis C Virus Infection with Direct-Acting Antiviral Agents: The Arc of a Medicinal Chemistry Triumph” (J Med Chem, 2016)
≈ marks a conversion by molar mass, not a printed value.

Legend:
Hepatitis C virus [1] = assay: Antiviral activity against HCV GT1b-genotype assessed as inhibition of viral replication; format: functional, organism-based, Hepacivirus hominis
[2] = tested on: Bovine viral diarrhea virus 1; assay: Antiviral activity against Bovine viral diarrhea virus 1 infected in MDBK cells assessed as reduction in viral replication; format: functional, organism-based; details: Bovine viral diarrhea virus isolates and strains
[3] = tested on: Bovine viral diarrhea virus 1; assay: Antiviral activity against Bovine viral diarrhea virus 1; format: functional, organism-based; details: Bovine viral diarrhea virus isolates and strains
[4] = tested on: Human immunodeficiency virus 1; assay: Antiviral activity against HIV-1; format: functional, organism-based
Human rhinovirus sp. = assay: Antiviral activity against HRV; format: functional, organism-based
[5] = tested on: Respiratory syncytial virus; assay: Antiviral activity against RSV; format: functional, organism-based; details: human respiratory syncytial virus
[6] = Cytotoxicity against human HEK293 cells assessed as reduction in cell viability […] after 72 hrs by alamar blue assay; format: toxicity, cell-based
Huh-7 = assay: Cytotoxicity against human Huh-7 cells assessed as reduction in cell viability […] after 72 hrs by alamar blue assay; format: functional
[7] = Cytotoxicity against African green monkey Vero cells assessed as reduction in cell viability […] after 72 hrs by alamar blue assay; format: toxicity, cell-based; details: chlorocebus sabaeus
[8] = Cytotoxicity against human MRC5 cells assessed as reduction in cell viability measured after 72 hrs by alamar blue assay; format: toxicity, cell-based
HeLa = assay: Cytotoxicity against human HeLa cells assessed as reduction in cell viability measured after 72 hrs by Alamar blue assay; format: functional
[9] = Cytotoxicity against human MT2 cells assessed as cell viability measured after 72 hrs by MTT assay; format: toxicity, cell-based
Hepatitis C virus [10] = assay: Antiviral activity against HCV genotype 1a; format: functional, organism-based, Hepacivirus hominis
Hepatitis C virus [11] = assay: Antiviral activity against HCV genotype 1b; format: functional, organism-based, Hepacivirus hominis
Hepatitis C virus [12] = assay: Antiviral activity against HCV genotype 1b expressing NS5B S365A mutant variant; format: functional, organism-based, Hepacivirus hominis
[13] = Oral bioavailability in rat at 3 mg/kg; format: ADME, organism-based; details: in vivo
[14] = Drug concentration in Beagle dog plasma at 6 mg/kg, po measured after 24 hrs by LC-MS/MS analysis; format: ADME, organism-based, Canis lupus familiaris
[15] = Drug concentration in Sprague-Dawley rat plasma at 15 mg/kg, po measured after 24 hrs by LC-MS/MS analysis; format: ADME, organism-based
[16] = Drug concentration in cynomolgus monkey liver at 10 mg/kg, po measured after 24 hrs by LC-MS/MS analysis; format: ADME, organism-based, Macaca fascicularis; details: read-out: Ct
[17] = Drug concentration in Beagle dog liver at 6 mg/kg, po measured after 24 hrs by LC-MS/MS analysis; format: ADME, organism-based, Canis lupus familiaris; details: read-out: Ct
[18] = Drug concentration in Sprague-Dawley liver at 15 mg/kg, po measured after 24 hrs by LC-MS/MS analysis; format: ADME, organism-based; details: rat, read-out: Ct
[19] = Drug concentration in FVB mouse liver at 5 mg/kg, po measured after 24 hrs by LC-MS/MS analysis; format: ADME, organism-based; details: read-out: Ct
[20] = AUC in FVB mouse at 5 mg/kg, po measured after 24 hrs by LC-MS/MS analysis; format: ADME, organism-based; design: dose 5 mg/kg, time 24 hrs, route po; details: in vivo
Hepatitis C virus [21] = assay: Inhibition of HCV genotype 1a; format: functional, organism-based, Hepacivirus hominis
Hepatitis C virus [22] = assay: Inhibition of HCV genotype 1b; format: functional, organism-based, Hepacivirus hominis
Hepatitis C virus [23] = assay: Inhibition of HCV genotype 2a; format: functional, organism-based, Hepacivirus hominis
Hepatitis C virus [24] = assay: Inhibition of HCV genotype 2b; format: functional, organism-based, Hepacivirus hominis
Hepatitis C virus [25] = assay: Inhibition of HCV genotype 3a; format: functional, organism-based, Hepacivirus hominis
Hepatitis C virus [26] = assay: Inhibition of HCV genotype 4a; format: functional, organism-based, Hepacivirus hominis
Hepatitis C virus [27] = assay: Inhibition of HCV genotype 5a; format: functional, organism-based, Hepacivirus hominis
Hepatitis C virus [28] = assay: Inhibition of HCV genotype 6a; format: functional, organism-based, Hepacivirus hominis
Hepatitis C virus [29] = assay: Antiviral activity against HCV genotype 2a; format: functional, organism-based, Hepacivirus hominis
Hepatitis C virus [30] = assay: Antiviral activity against HCV genotype 3a; format: functional, organism-based, Hepacivirus hominis
Hepatitis C virus [31] = assay: Antiviral activity against HCV genotype 4a; format: functional, organism-based, Hepacivirus hominis
[32] = AUC in Sprague-Dawley rat at 15 mg/kg, po measured after 24 hrs by LC-MS/MS analysis; format: ADME, organism-based; design: dose 15 mg/kg, time 24 hrs, route po; details: in vivo
[33] = AUC in Beagle dog at 3 mg/kg, po measured after 24 hrs by LC-MS/MS analysis; format: ADME, organism-based, Canis lupus familiaris; design: dose 3 mg/kg, time 24 hrs, route po; details: in vivo
[34] = AUC in cynomolgus monkey at 3mg/kg, po measured after 24 hrs by LC-MS/MS analysis; format: ADME, organism-based, Macaca fascicularis; design: time 24 hrs, route po; details: in vivo
Hepatitis C virus [35] = assay: Antiviral activity against Hepatitis C virus infected RNA assessed as reduction in viral replication at 200 mg, po BID measured for 3 days; format: functional, Hepacivirus hominis; details: time 3 day
Hepatitis C virus [36] = assay: Antiviral activity against Hepatitis C virus infected RNA assessed as reduction in viral replication at 400 mg, po BID measured for 3 days; format: functional, Hepacivirus hominis; details: time 3 day
Hepatitis C virus [37] = assay: Antiviral activity against Hepatitis C virus infected RNA assessed as reduction in viral replication at 600 mg, po BID measured for 3 days; format: functional, Hepacivirus hominis; details: time 3 day
in vivo [38] = details: cynomolgus monkey, iv, 1 mg/kg
Description: Half life in cynomolgus monkey at 1 mg/kg, iv measured after 24 hrs by HPLC method

in vivo [39] = details: cynomolgus monkey, po, 3 mg/kg
in vivo [40] = details: Sprague-Dawley, rat, iv, 5 mg/kg
Description: Half life in Sprague-Dawley rat at 5 mg/kg, iv measured after 24 hrs by HPLC method

in vivo [41] = details: FVB, mouse, po, 5 mg/kg
in vivo [42] = details: male, Sprague-Dawley, rat, po, 15 mg/kg
in vivo [43] = details: FVB, mouse, iv, 2 mg/kg
Description: Half life in FVB mouse at 2 mg/kg, iv measured after 24 hrs by HPLC method

in vivo [44] = details: beagle, dog, iv, 1 mg/kg
Description: Half life in Beagle dog at 1 mg/kg, iv measured after 24 hrs by HPLC method

[45] = Solubility in water at pH 7; format: physicochemical
Hepatitis C virus [46] = assay: Antiviral activity against HCV GT1a-genotype assessed as inhibition of viral replication; format: functional, organism-based, Hepacivirus hominis
Hepatitis C virus [47] = assay: Antiviral activity against HCV GT1b-genotype assessed as viral growth inhibition measured after 24 hrs; format: functional, organism-based, Hepacivirus hominis; details: for EC50: Hepatitis C virus, GT1b-genotype, 24 h
[48] = target: RNA-directed RNA polymerase (Hepacivirus hominis, UniProt O39930); assay: Inhibition of Hepatitis C virus NS5B polymerase
Sequence of RNA-directed RNA polymerase (O39930 whole entry): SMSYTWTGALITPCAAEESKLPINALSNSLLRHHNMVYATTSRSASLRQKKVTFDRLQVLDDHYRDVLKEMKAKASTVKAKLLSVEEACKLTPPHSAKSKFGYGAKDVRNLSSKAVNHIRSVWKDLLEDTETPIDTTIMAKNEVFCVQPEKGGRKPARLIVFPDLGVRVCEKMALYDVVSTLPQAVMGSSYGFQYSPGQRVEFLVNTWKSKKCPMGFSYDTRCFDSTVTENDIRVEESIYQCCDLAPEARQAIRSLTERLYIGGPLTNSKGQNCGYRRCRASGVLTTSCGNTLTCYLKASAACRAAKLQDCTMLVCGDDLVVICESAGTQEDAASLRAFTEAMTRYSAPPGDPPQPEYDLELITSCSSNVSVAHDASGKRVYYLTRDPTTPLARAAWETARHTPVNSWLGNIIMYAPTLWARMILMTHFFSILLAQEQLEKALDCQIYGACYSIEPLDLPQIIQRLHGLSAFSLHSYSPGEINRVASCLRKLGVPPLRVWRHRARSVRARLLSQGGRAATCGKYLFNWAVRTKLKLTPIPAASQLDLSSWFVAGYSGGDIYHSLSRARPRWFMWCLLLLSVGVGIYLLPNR

[49] = Oral bioavailability in Sprague-Dawley rat at 10 mg/kg measured after 4 hrs; format: ADME, organism-based; details: in vivo
[50] = Solubility of the compound; format: physicochemical
[51] = tested on: Pregnane X receptor (Homo sapiens); assay: PXR activation
[52] = target: T1, Nuclear receptor subfamily 1 group I member 2 (Homo sapiens, UniProt O75469); assay: Inhibition of PXR (unknown origin)
T1 sequence (O75469 whole entry): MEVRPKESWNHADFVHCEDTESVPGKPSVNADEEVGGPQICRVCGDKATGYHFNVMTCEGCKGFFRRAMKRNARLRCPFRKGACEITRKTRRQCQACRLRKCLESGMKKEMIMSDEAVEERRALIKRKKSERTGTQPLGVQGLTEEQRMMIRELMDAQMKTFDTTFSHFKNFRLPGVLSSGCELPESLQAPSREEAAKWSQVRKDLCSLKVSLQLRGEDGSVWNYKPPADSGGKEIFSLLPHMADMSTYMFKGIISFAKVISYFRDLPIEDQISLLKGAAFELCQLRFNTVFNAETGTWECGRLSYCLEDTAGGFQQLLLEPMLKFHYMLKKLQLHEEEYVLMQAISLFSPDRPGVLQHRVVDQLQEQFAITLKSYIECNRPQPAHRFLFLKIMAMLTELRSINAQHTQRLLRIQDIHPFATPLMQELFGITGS

[53] = Clearance in Wistar rat at 10 mg/kg, iv measured after 4 hrs; format: ADME, organism-based; details: in vivo
[54] = Clearance in Wistar rat at 10 mg/kg, po measured after 4 hrs; format: ADME, organism-based; details: in vivo
Hepatitis C virus [55] = assay: Antiviral activity against HCV GT1b-genotype assessed as inhibition of viral replication measured after 24 hrs; format: functional, organism-based, Hepacivirus hominis
[56] = Aqueous solubility of the compound at pH 2.2 measured after 24 hrs; format: physicochemical

Compound: C[C@H](NC(=O)OCc1ccccc1)C(=O)Nc1ccc(C2S/C(=N\c3cccc(F)c3)N(Cc3ccco3)C2=O)cc1 (some centres undefined)
- EC50 (Hepatitis C virus [1]): 570 nM
- EC50 [2]: 24000 nM
- EC50 [3]: 17000 nM
- EC50 [4]: 41000 nM
- EC50 (Human rhinovirus sp.): > 100000 nM
- EC50 [5]: 23000 nM
- CC50 at 72 h [6]: > 50000 nM
- CC50 (Huh-7): > 100000 nM
- CC50 at 72 h [7]: > 150000 nM
- CC50 at 72 h [8]: 41000 nM
- CC50 (HeLa): > 100000 nM
- CC50 at 72 h [9]: 23000 nM

Compound: O=C1Cn2c(c(C3CCCCC3)c3ccc(C(=O)O)cc32)-c2ccccc2N1
- EC50 (Hepatitis C virus [10]): < 10 nM
- EC50 (Hepatitis C virus [11]): < 10 nM
- EC50 (Hepatitis C virus [12]): 170 nM
- bioavailability [13]: 17%

Compound: C=C[C@@H]1C[C@]1(NC(=O)[C@@H]1C[C@@H](Oc2ncc(OC)c3ccc(Cl)cc23)CN1C(=O)[C@@H](NC(=O)OC(C)(C)C)C(C)(C)C)C(=O)NS(=O)(=O)C1CC1
- concentration at 24 h [14]: 6 nM
- concentration at 24 h [15]: 40 nM
- concentration at 24 h [16]: 440 nM
- concentration at 24 h [17]: 2500 nM
- concentration at 24 h [18]: 1200 nM
- concentration at 24 h [19]: 710 nM
- AUC at 24 h [20]: 0.54 µM·h
- IC50 (Hepatitis C virus [21]): 0.7 nM
- IC50 (Hepatitis C virus [22]): 0.3 nM
- IC50 (Hepatitis C virus [23]): 15 nM
- IC50 (Hepatitis C virus [24]): 78 nM
- IC50 (Hepatitis C virus [25]): 320 nM
- IC50 (Hepatitis C virus [26]): 1.6 nM
- IC50 (Hepatitis C virus [27]): 1.7 nM
- IC50 (Hepatitis C virus [28]): 0.9 nM
- EC50 (Hepatitis C virus [11]): 1.2 nM
- EC50 (Hepatitis C virus [29]): 230 nM
- EC50 (Hepatitis C virus [30]): 1160 nM
- EC50 (Hepatitis C virus [31]): 1.8 nM
- AUC at 24 h [32]: 1 µM·h
- AUC at 24 h [33]: 2.2 µM·h
- AUC at 24 h [34]: 0.41 µM·h
- Activity (Hepatitis C virus [35]): 3.09 log10 IU/mL
- Activity (Hepatitis C virus [36]): 3.57 log10 IU/mL
- Activity (Hepatitis C virus [37]): 2.84 log10 IU/mL
- half-life at 24 h (in vivo [38]): 1.3 h
- bioavailability (in vivo [39]): 11%
- half-life at 24 h (in vivo [40]): 4.2 h
- bioavailability (in vivo [41]): 28%
- bioavailability (in vivo [42]): 14%
- half-life at 24 h (in vivo [43]): 4.6 h
- half-life at 24 h (in vivo [44]): 1 h

Compound: CN(C)S(=O)(=O)NC(=O)c1ccc2c(C3CCCCC3)c3n(c2c1)CC(C(=O)N1CCOCC1)=Cc1ccccc1-3
- solubility [45]: < 1 µg/mL
- EC50 (Hepatitis C virus [46]): 119 nM
- EC50 (Hepatitis C virus [47]): 148 nM

Compound: Cn1c(-c2ccccc2)c(C2CCCCC2)c2ccc(C(=O)O)cc21
- IC50 [48]: 120 nM

Compound: COc1ccc2c(c1)[C@@H]1C[C@]1(C(=O)N1CC(C)N(C)C(C)C1)Cn1c-2c(C2CCCCC2)c2ccc(C(=O)NS(=O)(=O)N(C)C)cc21 (some centres undefined)
- bioavailability [49]: 17%
- solubility [50]: 34 µg/mL (≈ 51.4 µM)
- EC50 (Hepatitis C virus [46]): 1 nM
- EC50 (Hepatitis C virus [47]): 3 nM
- EC50 [51]: > 50000 nM

Compound: COc1ccc2c(c1)C=C(C(=O)N1C[C@@H](C)O[C@@H](C)C1)Cn1c-2c(C2CCCCC2)c2ccc(C(=O)NS(=O)(=O)N(C)C)cc21
- IC50 [52]: > 10000 nM
- EC50 (Hepatitis C virus [46]): 40 nM
- EC50 (Hepatitis C virus [47]): 40 nM

Compound: COc1ccc2c(c1)C1CC1(C(=O)N1CC3CCC(C1)N3C)Cn1c-2c(C2CCCCC2)c2ccc(C(=O)NS(=O)(=O)N(C)C)cc21 (racemic)
- CL [53]: 20.6 mg/mL/kg
- CL [54]: 55.4 mg/mL/kg
- EC50 (Hepatitis C virus [46]): 16 nM
- EC50 (Hepatitis C virus [47]): 39 nM

Compound: O=C(O)c1ccc2c(C3CCCCC3)c3n(c2c1)CC(C(=O)N1CCOCC1)Cc1ccccc1-3 (racemic)
- EC50 (Hepatitis C virus [46]): 2 nM
- EC50 (Hepatitis C virus [55]): 200 nM

Compound: COc1ccc2c(c1)[C@@H]1C[C@]1(C(=O)N1[C@@H]3CC[C@H]1CN(C)C3)Cn1c-2c(C2CCCCC2)c2ccc(C(=O)NS(=O)(=O)N(C)C)cc21 [BECLABUVIR]
- EC50 (Hepatitis C virus [10]): 200 nM
- solubility at 24 h [56]: > 1600 µg/mL
- Activity (Hepatitis C virus [47]; time 24 hrs): 1.3 log10 IU/mL
